Test results taken from ChEMBL document CHEMBL3044909, “Design, synthesis, and evaluation of an activity-based probe for cellular imaging of monoamine oxidases” (Med Chem Res, 2012).

Assays:
[1] = target: T1, Amine oxidase [flavin-containing] A (Homo sapiens, UniProt P21397); experiment: Binding affinity to MAOA (unknown origin) using 7-(3-amino-propoxy)-coumarin as substrate after 3 hr by spectrofluorometric analysis
T1 sequence (P21397 whole entry): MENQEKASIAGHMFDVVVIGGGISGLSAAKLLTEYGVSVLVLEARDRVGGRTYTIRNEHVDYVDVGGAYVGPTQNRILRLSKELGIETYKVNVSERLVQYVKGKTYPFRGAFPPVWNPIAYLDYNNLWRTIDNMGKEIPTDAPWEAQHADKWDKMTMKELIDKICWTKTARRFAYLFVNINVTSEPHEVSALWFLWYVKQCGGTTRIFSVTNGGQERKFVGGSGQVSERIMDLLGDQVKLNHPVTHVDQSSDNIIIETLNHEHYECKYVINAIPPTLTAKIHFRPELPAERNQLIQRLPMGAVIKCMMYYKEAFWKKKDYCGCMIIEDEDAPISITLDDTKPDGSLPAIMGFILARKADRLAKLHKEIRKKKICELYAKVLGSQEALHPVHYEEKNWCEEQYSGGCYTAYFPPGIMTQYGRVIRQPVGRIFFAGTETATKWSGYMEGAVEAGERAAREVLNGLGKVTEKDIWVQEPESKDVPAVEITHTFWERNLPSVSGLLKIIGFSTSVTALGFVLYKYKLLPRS

[2] = target: T2, Amine oxidase [flavin-containing] B (Homo sapiens, UniProt P27338); experiment: Binding affinity to MAOB (unknown origin) using 7-(3-amino-propoxy)-coumarin as substrate after 3 hr by spectrofluorometric analysis
T2 sequence (P27338 whole entry): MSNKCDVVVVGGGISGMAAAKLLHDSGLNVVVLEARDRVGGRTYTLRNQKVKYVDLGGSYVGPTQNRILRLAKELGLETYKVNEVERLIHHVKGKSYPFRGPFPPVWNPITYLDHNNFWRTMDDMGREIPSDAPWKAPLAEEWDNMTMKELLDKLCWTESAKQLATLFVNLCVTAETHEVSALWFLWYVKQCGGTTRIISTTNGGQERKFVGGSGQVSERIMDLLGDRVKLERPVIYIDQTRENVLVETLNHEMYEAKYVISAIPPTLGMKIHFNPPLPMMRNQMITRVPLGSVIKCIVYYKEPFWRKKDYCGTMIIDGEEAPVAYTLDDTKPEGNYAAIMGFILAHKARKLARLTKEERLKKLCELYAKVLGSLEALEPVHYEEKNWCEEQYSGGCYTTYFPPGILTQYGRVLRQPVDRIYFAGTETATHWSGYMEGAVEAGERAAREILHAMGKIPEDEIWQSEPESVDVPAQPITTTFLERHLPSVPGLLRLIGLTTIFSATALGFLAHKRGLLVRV

NCCCCCCNCC(N)=O
IC50 [1]: 8.6 µM | IC50 [2]: 79.5 µM

CC(C)(C)OC(=O)NCCCCCCNCC(N)=O
IC50 [1]: 5.7 µM | IC50 [2]: 54.3 µM
